Laboratory results taken from patent publication US4221794A, “Method of imparting immunomodulating and antiviral activity” (Newport Pharmaceuticals International, Inc., priority 1979, dated 1980).
Where two headings read alike, the source gives them in different places.

Experiments:
mouse lymphocytes = experiment: Mitogen (Con A) induced mouse lymphocyte (spleen cell) proliferation; type: cell-based; conditions: plus = immunostimulating, minus = immunoinhibiting, 0 = neither
Source text: The following three assay procedures are used to evaluate the ability of the test substances to modulate the activity of several classes of cells in the immune system. In these systems it is possible to identify both immunopotentiating activity (evidence by an enhancement of the parameter examined) as well as immunosuppressant activity (evidenced by an inhibition of the parameter examined).
1. Mitogen-Induced Mouse Spleen Cell Assay
Mouse spleen cells contain a population of both B and T lymphocytes which can be stimulated by a number of foreign substances (e.g., plant mitogens such as Con A) to proliferate. This enhanced proliferation is an indication of enhanced cell mediated immunity. The method below describes the system used to evaluate test substances as immunopotentiators.
Concanavalin A (Calbiochem, La Jolla, California), Lot #210073, lyophilized in NaCl, was prepared first as a 1% solution and diluted as a 2×concentration for each dilution (0.5, 1.0, 2.5 μg/ml).
Six to eight week old male Balb/c and C3 H inbred mice were obtained from the following sources: Flow Research Animals, Inc., Dublin, Virginia; Charles River Breeding Laboratories, Wilmington, Massachusetts; Laboratory Supply Company, Indianapolis, Indiana; and Lionel Strong Foundation, San Diego, California.
Three to five mice were sacrificed by cervical dislocation and the spleens aseptically removed. Pooled spleens were minced and teased with sterile forceps; then strained through a double layer of nylon mesh. The cell suspension was washed once with 15 ml of RPMI 1640 supplemented with 5% fetal calf serum and antibiotics. Cells were cultured at a concentration of 10^6 cells/0.1 ml/well in micro-plates. Cultures were incubated in the presence or absence of mitogen in a humidified atmosphere containing 5% CO2 for 48 hours. The test compound was added to cultures at various concentrations concommitant with mitogen.
Proliferation was assayed by the degree of incorporation of 1.0 μCi of [^3 H] thymidine over an 18 hour incubation period. Cultures were harvested by a MASH unit (Otto Hiller Co., Madison, Wisconsin) and thymidine incorporation was assayed by liquid scintillation spectrometry. Cultures were performed in triplicate and data are expressed as means plus or minus the standard error of the experimental means. Drug stimulation indices over control values were also calculated and portrayed graphically.
(§1) Table 4 above presents the results of an evaluation of a number of these subject compounds as potentiators of the immune response. Three different test systems were used. The first involves a measure of the ability of the test compound to enhance the ability of mouse lymphocytes to proliferate in response to a plant mitogen (Con A). The second involves measuring the ability of the test compounds to enhance human lymphocyte proliferation in response to a second plant mitogen (PHA). The third system measures the ability of these test substances to enhance macrophage proliferation in response to a natural lymphokine (MMF, Macrophage Mitogenic Factor).

influenza virus [1] = experiment: microbe, parasite or virus in culture; type: cell-based, influenza virus Type A/USSR 90 (HeLa cell cultures); conditions: for inhibition at 100 µg/mL: read-out: % Inhibition of Hemadsorption Foci, Test Compound Conc. >100 μg/ml
[2] = tested on: human peripheral blood lymphocytes; experiment: Mitogen (PHA) induced human lymphocyte proliferation; type: cell-based; conditions: plus = immunostimulating, minus = immunoinhibiting, 0 = neither
guinea pig macrophages = experiment: Lymphokine (MMF) induced guinea pig macrophage proliferation; type: cell-based; conditions: plus = immunostimulating, minus = immunoinhibiting, 0 = neither
Description: 3. The macrophage represents a subpopulation of white blood cells which is an important component of the immune system in control of both cellular and humoral immunity. The assay system described below evaluates the substances studied as potentiators of macrophage function.
Phytohemagglutinin (PHA) (HA-17) was purchased from Burroughs Wellcome. A preparation containing Macrophage Mitogen Factor (MMF) and Macrophage Activating Factor (MAF) was prepared from antigen-stimulated immune lymph node lymphocytes (guinea pig) as previously described by Hadden et al, Nature 257, 483-485 (1975). […] The active fraction was employed in both the proliferation and activation assays.
Ficoll-hypaque purified human peripheral blood lymphocytes were prepared and PHA-induced lymphocyte proliferation was assayed by the incorporation of tritiated thymidine as described in Hadden et al., Cell. Immunol. 20, 98-103 (1975). Each compound was analyzed in the presence of suboptimal, optimal and supraoptimal concentrations of PHA (0.001, 0.01, 0.1 units/ml respectively). Paraffin oil-induced guinea pig peritoneal macrophages were prepared and incubated as monolayer culture (>98% pure macrophages). Lymphokine (MMF)-induced proliferation was assayed by the incorporation of tritiated thymidine at 3 and 5 days of culture as described, Hadden et al, Nature 257, 483-485 (1975). Lymphokine (MAF)-induced macrophage activation to kill Listeria monocytogenes following 5 days of culture in the presence or absence of MAF was performed during a 6 hour period as described in Hadden and England, Immunopharmacology, pages 87-100 (Plenum Press, 1977). Phagocytosis was quantitated during a 20-minute exposure to Listeria monocytogenes by counting the number of macrophages containing bacteria and the number of bacteria per phagocytic cell on gram stained monolayers in Labtek chambers. Intracellular killing of bacteria was evaluated by counting the number of cells containing bacteria and the number of bacteria/cell 6 hours after the initial 20 minute exposure. Parallel experiments in which macrophages were lysed and intracellular bacteria were cultured confirm the validity of bacterial activity determined by this manner in this system. The drugs were employed in each of the three systems over serial log concentration range in triplicate in the presence and absence of mitogen or lymphokine. Each type of experiment was performed at least three times. Previous experiments indicate a parallelism of response to pharmacologic modulation in the proliferation and achivation assays.
as §1

influenza virus [3] = experiment: Anti-influenza activity (overall); type: cell-based, several strains of A and B sub-types

**Q.** Which “Maximum Percent Change, Mitogen Induced (Con A) Mouse Lymph. Prolif.” value (mouse lymphocytes; 1.0-10 (unit not given)) does the source give for `CC(CO)n1cnc2c(N)ncnc21` (stereo not shown) [NPT 15433, 9-(1-HYDROXY-2-PROPYL)ADENINE] here?
**A.** Its value is -23%.

**Q.** And the “Maximum Percent Change, Mitogen Induced (Con A) Mouse Lymph. Prolif.” value (mouse lymphocytes; 10-100 (unit not given))?
**A.** The value was -65%.

**Q.** And the “Maximum Percent Change, Mitogen Induced (Con A) Mouse Lymph. Prolif.” value (mouse lymphocytes; .01-1.0 (unit not given))?
**A.** The value was “+15%”.

**Q.** And the “% Inhibition of Hemadsorption Foci” value (influenza virus [1]; Test Compound Conc. >100 μg/ml, listed as 15433)?
**A.** Its value is 0%.

**Q.** What about the “Maximum Percent Change, Mitogen Induced (PHA) Human Lymph. Prolif.” value ([2]; 1.0-10 (unit not given)) of the same compound?
**A.** The value was 0%.

**Q.** What about the “Maximum Percent Change, Mitogen Induced (PHA) Human Lymph. Prolif.” value ([2]; 10-100 (unit not given)) of the same compound?
**A.** The value was -50%.

**Q.** What about the “Maximum Percent Change, Mitogen Induced (PHA) Human Lymph. Prolif.” value ([2]; .01-1.0 (unit not given)) of the same compound?
**A.** Its value is 53%.

**Q.** For `CC(=O)Nc1ccc(C(=O)O)cc1.CC(O)CN(C)C` [compound 15110, dimethylamino-2-propanol-p-acetamido benzoate, reference compound], which “% Inhibition of Hemadsorption Foci” value (influenza virus [1]) is on record?
**A.** The value was 0%.

**Q.** With `CC(O)Cn1cnc2c(=O)[nH]cnc21` (stereo not shown) [NPT 15446, 9-(2-HYDROXY-1-PROPYL)HYPOXANTHINE] as the compound, how does the “Maximum Percent Change, Mitogen Induced (Con A) Mouse Lymph. Prolif.” value (mouse lymphocytes; 1.0-10 (unit not given)) read?
**A.** Its value is 12%.

**Q.** And the “Maximum Percent Change, Mitogen Induced (Con A) Mouse Lymph. Prolif.” value (mouse lymphocytes; 10-100 (unit not given))?
**A.** The value was 0%.

**Q.** And the “Maximum Percent Change, Mitogen Induced (Con A) Mouse Lymph. Prolif.” value (mouse lymphocytes; .01-1.0 (unit not given))?
**A.** The value was 6%.

**Q.** What about the “% Inhibition of Hemadsorption Foci” value (influenza virus [1]; Test Compound Conc. <10 μg/ml, listed as 15446) of the same compound?
**A.** Its value is 2%.

**Q.** What about the “% Inhibition of Hemadsorption Foci” value (influenza virus [1]; Test Compound Conc. >100 μg/ml, listed as 15446) of the same compound?
**A.** The value was 0%.

**Q.** And the “Maximum Percent Change, Lymphokine Induced (MMF) Guinea Pig Mac. Prolif.” value (guinea pig macrophages; 1.0-10 (unit not given))?
**A.** The value was 0%.

**Q.** And the “Maximum Percent Change, Lymphokine Induced (MMF) Guinea Pig Mac. Prolif.” value (guinea pig macrophages; 10-100 (unit not given))?
**A.** The value was 0%.

**Q.** And the “Maximum Percent Change, Lymphokine Induced (MMF) Guinea Pig Mac. Prolif.” value (guinea pig macrophages; .01-1.0 (unit not given))?
**A.** The value was 0%.

**Q.** What about the “Maximum Percent Change, Mitogen Induced (PHA) Human Lymph. Prolif.” value ([2]; 1.0-10 (unit not given)) of the same compound?
**A.** Its value is 0%.

**Q.** And the “Maximum Percent Change, Mitogen Induced (PHA) Human Lymph. Prolif.” value ([2]; 10-100 (unit not given))?
**A.** The value was 0%.

**Q.** What about the “Maximum Percent Change, Mitogen Induced (PHA) Human Lymph. Prolif.” value ([2]; .01-1.0 (unit not given)) of the same compound?
**A.** Its value is 0%.

**Q.** With `CC(CO)n1cnc2c(Cl)ncnc21` (stereo not shown) [NPT 15423, 9-(1-HYDROXY-2-PROPANE)-6-CHLOROPURINE] as the compound, how does the inhibition at 10 µg/mL (influenza virus [1]; unidentified influenza virus, read-out: % Inhibition of Hemadsorption Foci, Test Compound Conc. <10 μg/ml) read?
**A.** The inhibition at 10 µg/mL was 2%.

**Q.** What about the inhibition at 100 µg/mL (influenza virus [1]; unidentified influenza virus) of the same compound?
**A.** The inhibition at 100 µg/mL was 6%.

**Q.** Which “% Inhibition of Hemadsorption Foci” value (influenza virus [1]; Test Compound Conc. >100 μg/ml, listed as 15434) does the source give for `CC(CO)n1cnc2c(N)ncnc21` (stereo not shown) [NPT 15434] here?
**A.** The value was 62%.

**Q.** And the “potentiation of anti-influenza activity by DIP.PAcBA salt” value (influenza virus [3])?
**A.** Its value is “Yes”.

**Q.** With `OCCn1cnc2c(=S)[nH]cnc21` [NPT 15435] as the compound, how does the inhibition at 100 µg/mL (influenza virus [1]; unidentified influenza virus) read?
**A.** Its inhibition at 100 µg/mL is 10%.

**Q.** What about the “Maximum Percent Change, Mitogen Induced (PHA) Human Lymph. Prolif.” value ([2]; 1.0-10 (unit not given)) of the same compound?
**A.** Its value is 45%.

**Q.** And the “Maximum Percent Change, Mitogen Induced (PHA) Human Lymph. Prolif.” value ([2]; 10-100 (unit not given))?
**A.** The value was -50%.

**Q.** What about the “Maximum Percent Change, Mitogen Induced (PHA) Human Lymph. Prolif.” value ([2]; .01-1.0 (unit not given)) of the same compound?
**A.** The value was 55%.

**Q.** For `CC(O)Cn1cnc2c(N)ncnc21` (stereo not shown) [NPT 15431, 9-(2-HYDROXY-1-PROPYL)ADENINE], which “Maximum Percent Change, Mitogen Induced (Con A) Mouse Lymph. Prolif.” value (mouse lymphocytes; 1.0-10 (unit not given)) is on record?
**A.** Its value is -27%.

**Q.** What about the “Maximum Percent Change, Mitogen Induced (Con A) Mouse Lymph. Prolif.” value (mouse lymphocytes; 10-100 (unit not given)) of the same compound?
**A.** Its value is -47%.

**Q.** And the “Maximum Percent Change, Mitogen Induced (Con A) Mouse Lymph. Prolif.” value (mouse lymphocytes; .01-1.0 (unit not given))?
**A.** Its value is -15%.

**Q.** What about the “% Inhibition of Hemadsorption Foci” value (influenza virus [1]; Test Compound Conc. >100 μg/ml, listed as 15431) of the same compound?
**A.** The value was 0%.

**Q.** What about the “Maximum Percent Change, Mitogen Induced (PHA) Human Lymph. Prolif.” value ([2]; 1.0-10 (unit not given)) of the same compound?
**A.** The value was 0%.

**Q.** What about the “Maximum Percent Change, Mitogen Induced (PHA) Human Lymph. Prolif.” value ([2]; 10-100 (unit not given)) of the same compound?
**A.** The value was 0%.

**Q.** And the “Maximum Percent Change, Mitogen Induced (PHA) Human Lymph. Prolif.” value ([2]; .01-1.0 (unit not given))?
**A.** Its value is 0%.
